Test results: patent US6849455B1, “Enhanced recovery of transformed cells” (New York University, priority 2000, dated 2005)

Experiments:
E. coli = experiment: Supplements to rich/selective media in RepFIC transformations; type: cell-based; conditions: for effective as substitute for the L-cysteine effect in RepFIC transformations: supplement to rich media, glutathione 300 micrograms per ml; for increase in the number of transformants: supplement added to the selective medium
C600 hosts = conditions: additives: cysteine, cystine, or glutathione
Description: Single colonies that were normal in appearance, selected after transformation of C600 hosts in the presence of cysteine (Table 1, row 1) were resuspended in liquid medium. Aliquots were streaked onto spectinomycin-containing plates and spectinomycin plates with the following additives: cysteine, cystine, or glutathione.
Single colonies selected after transformation of C600 hosts in the presence of cysteine (Table 1, row 1) were initially difficult to grow.

C600 [1] = experiment: Transformation of scL and scH RepFIC plasmid DNAs into C600; type: cell-based, E. coli; conditions: supplement added after electroporation and/or during selection
Description: The package consists of homocysteine, ferrous sulfate, and magnesium sulfate.
To ascertain that the scL phenotype was heritable under all circumstances and viable, scL DNA was transferred into C600 by electroporation. Selection of transformants was carried out without additional supplements or in the presence of cysteine or glutathione. […] Thus, although an additional source of cysteine is still required under the conditions of this transformation, cysteine becomes toxic at the concentration that was previously used.
In order to identify the contribution of co-transmitted molecules that are easily removed, scL DNA was in vitro salt-stripped before being transformed. […] Plasmid preparations are associated with several proteins, of about 32 kda in size, which could be the dam-methyltransferase (GenBank accession no. J01600). Therefore, it is possible that the dam-methyltransferase is one significant component removed by the salt treatment.
The methylation reaction per se could have become limiting as a result of the removal of methyltransferase, and activation of the biosynthesis of S-adenosylmethionine (SAM), the methyl donor in the methylation reaction, could help overcome low enzyme levels in the cell. Homocysteine is a known co-inducer of the MetR regulon (Schell, 1993), and thus activates the synthesis of SAM (Palmer and Marinus, 1994). […]

C600 [2] = experiment: Plasmid yield after overnight growth with glycerol as carbon source; type: cell-based, E. coli; conditions: homocysteine and ferrous sulfate supplements
Description: (§1) Glycerol, when used as a carbon source, avoids catabolite repression. The plasmid was prepared from the following hosts grown overnight with the supplements homocysteine and ferrous sulfate, using glycerol as a carbon source: C600 containing the non-imprinted plasmid, the lon host Δlon-510 (containing the imprinted scL plasmid), and C600 containing the imprinted scL plasmid. […] One interpretation of the difference seen between lanes 3-4 and 5-6 is that when Lon is present (C600) and there is no catabolite repression, the post-replicative steps occur at a sufficient rate to adjust for the recovery of the final product, scH plasmid. When Lon is absent, stimulation of steps occurring after normal Lon-processing are ineffective because the substrate for these steps is insufficient.

lon host Δlon-510 = experiment: as above; type: cell-based, E. coli; conditions: homocysteine and ferrous sulfate supplements
Description: as §1

With `N=C(N)NCCC[C@H](N)C(=O)O` [L-arginine] the “effective as substitute for the L-cysteine effect in RepFIC transformations” value (“effective as substitute” below) (E. coli) was “None of these was effective”.
glutamyl-cysteinylglycine [glutathione] was tested, and the “number of colonies obtained” value (E. coli; glutathione 300 micrograms per ml compared to 400 micrograms cysteine per ml) was “the same as with cysteine”, the “effective as substitute” value (E. coli) was “effective” and the “growth of cysteine-selected transformants on spectinomycin plates with additive” value (C600 hosts) was “only grew on the glutathione-supplemented plates”.
In the case of `N[C@@H](CCS)C(=O)O` [Homocysteine, homocysteine], the “recovery of transformants with highly purified (salt-stripped) transforming DNA” value (C600 [1]) is reported as “rescued the transforming ability”.
`OCC(O)CO` [glycerol] was tested, and the “increase in yield of plasmid” value (C600 [2]) was 5 to 10 fold and the “increase in yield of plasmid” value (lon host Δlon-510) was 5 to 10 fold.
For `N[C@@H](CS(=O)(=O)O)C(=O)O` [L0cysteic acid, L-cysteic acid], the “effective as substitute” value (E. coli) was “None of these was effective”.
With `O=S(=O)([O-])[O-].[Mg+2]` [Magnesium sulfate, magnesium sulfate] the “increase in the transformation efficiency” value (E. coli; supplement added after electroporation, RepFIC) was “no effect” and the “increase in the number of transformants” value (E. coli; RepFIC) was “no effect”.
`N[C@@H](CSSC[C@H](N)C(=O)O)C(=O)O` [L-cystine] was tested, and the “effective as substitute” value (E. coli) was “None of these was effective”.
For `CC(=O)NC(CS)C(=O)O` (racemic) [-acetyl-D,L-cysteine, N-acetyl-D,L-cysteine], the “effective as substitute” value (E. coli) was “None of these was effective”.
For `CSCC[C@H](N)C(=O)O` [L-methionine], the “effective as substitute” value (E. coli) was “None of these was effective”.
In the case of `N[C@@H](CS)C(=O)O` [L-cysteine], the “recovery of transformants with highly purified (salt-stripped) transforming DNA” value (C600 [1]) is reported as “no longer helped in the recovery of transformants”, the “optimal concentration of cysteine” value (E. coli; selective medium, RepFIC transformation) is reported as 400 micrograms per ml and the “increase in the number of transformants” value (E. coli; RepFIC) is reported as ~10^3 fold.
